Common to all, as to assay type: biochemical, murine
The target of experiment [1] is T1, wild type mCOX-2 (Mus musculus, UniProt Q05769).
T1 construct: made in house; host or cells: Sf9 insect cells (baculovirus, pVL1393)
T1 sequence (Q05769 18-604): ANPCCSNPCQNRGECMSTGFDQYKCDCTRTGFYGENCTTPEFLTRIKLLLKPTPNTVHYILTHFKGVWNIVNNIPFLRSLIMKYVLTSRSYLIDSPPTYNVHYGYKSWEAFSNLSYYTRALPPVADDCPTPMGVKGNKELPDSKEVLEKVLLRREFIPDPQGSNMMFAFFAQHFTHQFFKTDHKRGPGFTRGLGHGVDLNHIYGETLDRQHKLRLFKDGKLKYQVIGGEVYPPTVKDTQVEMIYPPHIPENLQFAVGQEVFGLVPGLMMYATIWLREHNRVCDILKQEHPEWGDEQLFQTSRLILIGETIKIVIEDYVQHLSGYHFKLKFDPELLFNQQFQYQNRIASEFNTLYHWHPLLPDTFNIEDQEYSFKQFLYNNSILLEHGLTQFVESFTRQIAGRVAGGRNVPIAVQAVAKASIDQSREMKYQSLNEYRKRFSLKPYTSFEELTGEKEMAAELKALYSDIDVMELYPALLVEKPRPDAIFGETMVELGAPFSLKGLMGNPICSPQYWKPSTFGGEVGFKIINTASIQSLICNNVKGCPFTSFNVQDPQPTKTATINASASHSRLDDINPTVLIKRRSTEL
Put plainly: Kinetics of time-dependent COX inhibition. How it is done:
Assays were terminated and analyzed for substrate consumption by thin layer chromatography. […] Time-dependent COX inhibition reactions were pre-incubated at 37° C. for varying lengths of time (0-30 minutes) with various concentrations of inhibitor. All reactions were performed with [1-^14C]-AA for 30 seconds at 37° C.; reactions were terminated and analyzed as described above.
To ensure that pseudo-first-order conditions were maintained, the enzymatic oxygenation reactions were terminated after 30 seconds to prevent extensive consumption of substrate. The decline of substrate conversion at different INDO concentrations was plotted against the pre-incubation times and fit to a single exponential decay with a plateau to determine kobs (FIG. 2).
The rate constant k2 represents the limiting forward rate constant for functionally irreversible inhibition, and KI corresponds to the inhibitor concentration that yields a rate equal to half of the limiting rate.

The target of the next experiment is T2, mCOX-2^V349I (Mus musculus, UniProt Q05769, V335I).
T2 construct: made in house; host or cells: Sf9 insect cells (baculovirus, pVL1393)
T2 sequence (Q05769 18-604 V335I): T1 sequence (Q05769 18-604) with V318I
The experiment is described as follows: Activity recovery assay (reversibility of COX inhibition). The settings on record: 10 μM inhibitor, 50 μM AA. On the procedure: (§1) The reversibility of the second step in equation (1) could be directly evaluated by the amount of enzyme activity recovered after a prolonged incubation time with substrate. […] The enzymes were pre-incubated for 20 minutes with DMSO or 10 μM INDO, prior to the addition of 50 μM AA. After addition of AA, the oxygenation reactions were allowed to proceed for varying lengths of time. As the reaction time increased, the extent of inhibition decreased if INDO binding was reversible. The time course for recovery of AA oxygenation was fit to a single exponential (FIG. 3A).
(§2) The reversibility of DM-INDO inhibition was evaluated similarly to INDO using the activity recovery assay (FIG. 3). The experiments and analysis were performed as described above.

The target in experiment [2] is T1, wild type mCOX-2. Described as above. The settings on record: 10 μM inhibitor, 50 μM AA. On the procedure:
as §1, §2

Numbering of substitutions follows the chain as printed.

Consider `COc1ccc2c(c1)c(CC(=O)O)cn2C(=O)c1ccc(Cl)cc1` [DM-INDO, 2-Des-methylindomethacin], for which, on wild type mCOX-2 [1], the “off-rate constant slower than the on-rate” value was found to be 14 fold and the “remaining activity approached (plateau) in time-dependent inhibition curves” value is on record as “about 30%”. Besides, the “on-rate constant (k2) faster than for INDO” value at wild type mCOX-2 [1] (DM-INDO versus INDO) is 14 fold. At wild type mCOX-2 [1] (time-dependent inhibition), the Ki came to 26 ± 7 µM, the k2 stood at 0.80 ± 0.03 s⁻¹ and the “k−2” value came to 0.05 ± 0.02 s⁻¹. Also, the “K−2^b (rate constant determined by reversible inhibition)” value on mCOX-2^V349I was 0.015 ± 0.005 s⁻¹. The “K−2^b (rate constant determined by reversible inhibition)” value at wild type mCOX-2 [2] is 0.023 ± 0.001 s⁻¹.

Values taken from patent publication US8168656B2, “Indoleacetic acid and indenacetic acid derivatives as therapeutic agents with reduced gastrointestinal toxicity” (Vanderbilt University, priority 2009, dated 2012).
